Laboratory results reported in PubChem BioAssay AID1963849 (Molecular Pharmacology Branch, DTP, NCI, 2024).

System: 299254-011-R-J1-PDC complex spheroid viability
Assay: Anticancer human tumor 299254-011-R-J1-PDC patient-derived melanoma cell line growth inhibition [POLQ]
Conditions: for IC50: curve of first compound; for viability, T/C: stronger effect = lower value
Outline: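 Patient-derived tumour cells were co-cultured with HUVEC and mesenchymal stem cells as multicellular spheroids at 37 °C. They were treated with POLQ inhibitors (novobiocin, ART-558, RP6685) alone or combined with other agents. Top concentrations were at or near clinical Cmax (otherwise 10 microM; SN-38 at 1 microM), decreasing in half-log steps.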

[1] = second compound 0.0316 µM, first compound 0.0316 µM
[2] = second compound 0.0316 µM, first compound 0.1 µM
[3] = second compound 0.0316 µM, first compound 0.316 µM
[4] = second compound 0.0316 µM, first compound 1 µM
[5] = second compound 0.0316 µM, first compound 3.16 µM
[6] = second compound 0.0316 µM, first compound 10 µM
[7] = second compound 0.1 µM, first compound 0.0316 µM
[8] = second compound 0.1 µM, first compound 0.1 µM
[9] = second compound 0.1 µM, first compound 0.316 µM
[10] = second compound 0.1 µM, first compound 1 µM
[11] = second compound 0.1 µM, first compound 3.16 µM
[12] = second compound 0.1 µM, first compound 10 µM
[13] = second compound 0.316 µM, first compound 0.0316 µM
[14] = second compound 0.316 µM, first compound 0.1 µM
[15] = second compound 0.316 µM, first compound 0.316 µM
[16] = second compound 0.316 µM, first compound 1 µM
[17] = second compound 0.316 µM, first compound 3.16 µM
[18] = second compound 0.316 µM, first compound 10 µM
[19] = second compound 1 µM, first compound 0.0316 µM
[20] = second compound 1 µM, first compound 0.1 µM
[21] = second compound 1 µM, first compound 0.316 µM
[22] = second compound 1 µM, first compound 1 µM
[23] = second compound 1 µM, first compound 3.16 µM
[24] = second compound 1 µM, first compound 10 µM
[25] = second compound 3.16 µM, first compound 0.0316 µM
[26] = second compound 3.16 µM, first compound 0.1 µM
[27] = second compound 3.16 µM, first compound 0.316 µM
[28] = second compound 3.16 µM, first compound 1 µM
[29] = second compound 3.16 µM, first compound 3.16 µM
[30] = second compound 3.16 µM, first compound 10 µM
[31] = second compound 10 µM, first compound 0.0316 µM
[32] = second compound 10 µM, first compound 0.1 µM
[33] = second compound 10 µM, first compound 0.316 µM
[34] = second compound 10 µM, first compound 1 µM
[35] = second compound 10 µM, first compound 3.16 µM
[36] = second compound 10 µM, first compound 10 µM
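Further: spheroids exposed to drugs for one week before measurement.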
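Wherever viability, T/C is given: percent viability relative to DMSO vehicle control taken as 100%.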

Structure (SMILES): O=C(Nc1ccc(O)c(NS(=O)(=O)c2ccc(F)cc2)c1)c1ccc(-c2ccccc2)cc1 + Nc1ccc(C#CCN(C(=O)Cc2ncc(C(F)(F)F)cc2C(F)(F)F)c2ccc(F)cc2)nn1
- IC50 (second compound 0.0316 µM): 9.16 µM
- IC50 (second compound 0.1 µM): 8.49 µM
- IC50 (second compound 0.316 µM): 8.65 µM
- IC50 (second compound 1 µM): 9.34 µM
- IC50 (second compound 3.16 µM): 8.68 µM
- IC50 (second compound 10 µM): > 10 µM
- viability, T/C [1]: 104%
- viability, T/C [2]: 119%
- viability, T/C [3]: 97.4%
- viability, T/C [4]: 98.2%
- viability, T/C [5]: 97.3%
- viability, T/C [6]: 46.1%
- viability, T/C [7]: 102%
- viability, T/C [8]: 99.8%
- viability, T/C [9]: 91.4%
- viability, T/C [10]: 101%
- viability, T/C [11]: 95.6%
- viability, T/C [12]: 42.4%
- viability, T/C [13]: 108%
- viability, T/C [14]: 88.4%
- viability, T/C [15]: 107%
- viability, T/C [16]: 91.8%
- viability, T/C [17]: 85.9%
- viability, T/C [18]: 44.9%
- viability, T/C [19]: 108%
- viability, T/C [20]: 94.5%
- viability, T/C [21]: 95.7%
- viability, T/C [22]: 97.5%
- viability, T/C [23]: 87.3%
- viability, T/C [24]: 47.2%
- viability, T/C [25]: 106%
- viability, T/C [26]: 92.1%
- viability, T/C [27]: 92.7%
- viability, T/C [28]: 86.8%
- viability, T/C [29]: 79.9%
- viability, T/C [30]: 45.1%
- viability, T/C [31]: 83.2%
- viability, T/C [32]: 92.4%
- viability, T/C [33]: 88%
- viability, T/C [34]: 76%
- viability, T/C [35]: 74.7%
- viability, T/C [36]: 50.6%

Structure (SMILES): CNCc1ccc(-c2[nH]c3cc(F)cc4c3c2CCNC4=O)cc1 + Nc1ccc(C#CCN(C(=O)Cc2ncc(C(F)(F)F)cc2C(F)(F)F)c2ccc(F)cc2)nn1
- IC50 (second compound 0.0316 µM): > 10 µM
- IC50 (second compound 0.1 µM): > 10 µM
- IC50 (second compound 0.316 µM): > 10 µM
- IC50 (second compound 1 µM): > 10 µM
- IC50 (second compound 3.16 µM): > 10 µM
- IC50 (second compound 10 µM): > 10 µM
- viability, T/C [1]: 108%
- viability, T/C [2]: 107%
- viability, T/C [3]: 109%
- viability, T/C [4]: 122%
- viability, T/C [5]: 110%
- viability, T/C [6]: 103%
- viability, T/C [7]: 115%
- viability, T/C [8]: 117%
- viability, T/C [9]: 99.8%
- viability, T/C [10]: 105%
- viability, T/C [11]: 109%
- viability, T/C [12]: 109%
- viability, T/C [13]: 106%
- viability, T/C [14]: 107%
- viability, T/C [15]: 96.4%
- viability, T/C [16]: 95.7%
- viability, T/C [17]: 119%
- viability, T/C [18]: 129%
- viability, T/C [19]: 113%
- viability, T/C [20]: 111%
- viability, T/C [21]: 94.4%
- viability, T/C [22]: 102%
- viability, T/C [23]: 129%
- viability, T/C [24]: 114%
- viability, T/C [25]: 106%
- viability, T/C [26]: 105%
- viability, T/C [27]: 110%
- viability, T/C [28]: 95.9%
- viability, T/C [29]: 124%
- viability, T/C [30]: 124%
- viability, T/C [31]: 107%
- viability, T/C [32]: 96.2%
- viability, T/C [33]: 93.1%
- viability, T/C [34]: 103%
- viability, T/C [35]: 102%
- viability, T/C [36]: 94.1%

Structure (SMILES): COc1cccc2c1C(=O)c1c(O)c3c(c(O)c1C2=O)CC(O)(C(=O)CO)CC3OC1CC(N)C(O)C(C)O1 (stereo not given) + Nc1ccc(C#CCN(C(=O)Cc2ncc(C(F)(F)F)cc2C(F)(F)F)c2ccc(F)cc2)nn1
- IC50 (second compound 0.0316 µM): 1.07 µM
- IC50 (second compound 0.1 µM): 0.927 µM
- IC50 (second compound 0.316 µM): 1.02 µM
- IC50 (second compound 1 µM): 0.832 µM
- IC50 (second compound 3.16 µM): 0.75 µM
- IC50 (second compound 10 µM): 0.535 µM
- viability, T/C [1]: 120%
- viability, T/C [2]: 85.1%
- viability, T/C [3]: 83.1%
- viability, T/C [4]: 56.5%
- viability, T/C [5]: 17.8%
- viability, T/C [6]: 1.11%
- viability, T/C [7]: 89.8%
- viability, T/C [8]: 94.6%
- viability, T/C [9]: 63.5%
- viability, T/C [10]: 54.5%
- viability, T/C [11]: 17.9%
- viability, T/C [12]: 1.22%
- viability, T/C [13]: 93.1%
- viability, T/C [14]: 75.2%
- viability, T/C [15]: 65.9%
- viability, T/C [16]: 61.2%
- viability, T/C [17]: 16%
- viability, T/C [18]: 2.99%
- viability, T/C [19]: 86.6%
- viability, T/C [20]: 72.2%
- viability, T/C [21]: 87.2%
- viability, T/C [22]: 43.9%
- viability, T/C [23]: 9.65%
- viability, T/C [24]: 0.5%
- viability, T/C [25]: 94.9%
- viability, T/C [26]: 85.7%
- viability, T/C [27]: 77.1%
- viability, T/C [28]: 42.7%
- viability, T/C [29]: 0.52%
- viability, T/C [30]: 2.06%
- viability, T/C [31]: 77.7%
- viability, T/C [32]: 85.9%
- viability, T/C [33]: 65.3%
- viability, T/C [34]: 30.5%
- viability, T/C [35]: 0.39%
- viability, T/C [36]: 2.85%

Structure (SMILES): CCCS(=O)(=O)Nc1ccc(F)c(C(=O)c2c[nH]c3ncc(-c4ccc(Cl)cc4)cc23)c1F + Cc1cccc(N(C)C(=O)C2C(O)CCN2c2nc(C)cc(C(F)(F)F)c2C#N)c1
- IC50 (second compound 0.0316 µM): > 10 µM
- IC50 (second compound 0.1 µM): 8.99 µM
- IC50 (second compound 0.316 µM): 9.29 µM
- IC50 (second compound 1 µM): 9.29 µM
- IC50 (second compound 3.16 µM): > 10 µM
- IC50 (second compound 10 µM): > 10 µM
- viability, T/C [1]: 117%
- viability, T/C [2]: 95.7%
- viability, T/C [3]: 119%
- viability, T/C [4]: 109%
- viability, T/C [5]: 123%
- viability, T/C [6]: 50%
- viability, T/C [7]: 104%
- viability, T/C [8]: 107%
- viability, T/C [9]: 109%
- viability, T/C [10]: 114%
- viability, T/C [11]: 115%
- viability, T/C [12]: 44%
- viability, T/C [13]: 107%
- viability, T/C [14]: 112%
- viability, T/C [15]: 104%
- viability, T/C [16]: 110%
- viability, T/C [17]: 103%
- viability, T/C [18]: 46.3%
- viability, T/C [19]: 93.1%
- viability, T/C [20]: 103%
- viability, T/C [21]: 103%
- viability, T/C [22]: 107%
- viability, T/C [23]: 109%
- viability, T/C [24]: 46.4%
- viability, T/C [25]: 110%
- viability, T/C [26]: 124%
- viability, T/C [27]: 108%
- viability, T/C [28]: 108%
- viability, T/C [29]: 117%
- viability, T/C [30]: 52.6%
- viability, T/C [31]: 100%
- viability, T/C [32]: 110%
- viability, T/C [33]: 113%
- viability, T/C [34]: 107%
- viability, T/C [35]: 110%
- viability, T/C [36]: 52.4%

Structure (SMILES): COc1ccc([C@@H](O)c2cc(-c3ncnc4cc(N5CCOCC5)ccc34)c(F)cc2Cl)nn1 + COC1C(OC(N)=O)C(O)C(Oc2ccc3c(O)c(NC(=O)c4ccc(O)c(CC=C(C)C)c4)c(=O)oc3c2C)OC1(C)C
- IC50 (second compound 0.0316 µM): 9.66 µM
- IC50 (second compound 0.1 µM): 8.91 µM
- IC50 (second compound 0.316 µM): 8.8 µM
- IC50 (second compound 1 µM): > 10 µM
- IC50 (second compound 3.16 µM): > 10 µM
- IC50 (second compound 10 µM): 8.74 µM
- viability, T/C [1]: 103%
- viability, T/C [2]: 90.6%
- viability, T/C [3]: 97.7%
- viability, T/C [4]: 109%
- viability, T/C [5]: 102%
- viability, T/C [6]: 48.3%
- viability, T/C [7]: 115%
- viability, T/C [8]: 109%
- viability, T/C [9]: 114%
- viability, T/C [10]: 99%
- viability, T/C [11]: 89.8%
- viability, T/C [12]: 45.4%
- viability, T/C [13]: 116%
- viability, T/C [14]: 125%
- viability, T/C [15]: 118%
- viability, T/C [16]: 106%
- viability, T/C [17]: 86.7%
- viability, T/C [18]: 45.4%
- viability, T/C [19]: 118%
- viability, T/C [20]: 107%
- viability, T/C [21]: 101%
- viability, T/C [22]: 110%
- viability, T/C [23]: 90.6%
- viability, T/C [24]: 54.5%
- viability, T/C [25]: 128%
- viability, T/C [26]: 96.3%
- viability, T/C [27]: 109%
- viability, T/C [28]: 103%
- viability, T/C [29]: 85.1%
- viability, T/C [30]: 51.1%
- viability, T/C [31]: 107%
- viability, T/C [32]: 107%
- viability, T/C [33]: 105%
- viability, T/C [34]: 87.1%
- viability, T/C [35]: 92.9%
- viability, T/C [36]: 44%
